Where “and” joins values, the source holds several entries; their conditions need not be identical. Equal entries are not always repeated.
Experiment: Plasma and brain concentrations after MES testing (UHPLC-ESI-MS/MS);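 further: brain and plasma were sampled from mice right after the efficacy test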
Settings: for concentration at 0.5 h / concentration at 2 h: in vivo
[1] = Compound A 0.25 mg/kg PO 2 h alone (phenytoin study), 0.25 mg/kg
[2] = Compound A 0.75 mg/kg PO 2 h alone (phenytoin study), 0.75 mg/kg
[3] = Compound A 1 mg/kg PO 2 h alone (levetiracetam study), 1 mg/kg
[4] = Compound A 1 mg/kg PO 2 h alone (phenytoin study), 1 mg/kg
[5] = Compound A 1 mg/kg PO 2 h alone (valproic acid study), 1 mg/kg
[6] = Compound A 2.5 mg/kg PO 2 h alone (phenytoin study), 2.5 mg/kg
[7] = analyte Compound A, 0.25 mg/kg + 2 mg/kg Phenytoin
[8] = analyte Compound A, 0.75 mg/kg + 2 mg/kg Phenytoin
[9] = analyte Compound A, 1 mg/kg + 2 mg/kg Phenytoin
[10] = analyte Compound A, 1 mg/kg PO + 100 mg/kg Valproic Acid IP
[11] = analyte Compound A, 2.5 mg/kg + 2 mg/kg Phenytoin

Q: Which results are given for `Cc1cc(N2CCc3cc(F)ccc3C2)cc(C)c1NC(=O)CC(C)(C)C` [Compound A, N-[4-(6-fluoro-3,4-dihydro-1H-isoquinolin-2-yl)-2,6-dimethylphenyl]-3,3-dimethylbutanamide]?
A: concentration at 0.5 h (CF-1, mouse, po, 4 mg/kg, Concentration Plasma, Compound A 4 mg/kg PO, 0.5 hr): 154 ng/mL; concentration at 2 h (CF-1, mouse, po, 4 mg/kg, Concentration Plasma, Compound A 4 mg/kg PO, 2 hr): 83 ng/mL; concentration at 0.5 h (CF-1, mouse, po, 8 mg/kg, Concentration Brain, Compound A 8 mg/kg PO single dose, tissue collection 0.5 hr): 1090 nM; concentration at 2 h (CF-1, mouse, po, 8 mg/kg, Concentration Brain, Compound A 8 mg/kg PO single dose, tissue collection 2 hr): 560 nM; concentration at 0.5 h (CF-1, mouse, po, 8 mg/kg, Concentration Brain, Compound A 8 mg/kg PO, 0.5 hr): 402 ng/g; concentration at 2 h (CF-1, mouse, po, 8 mg/kg, Concentration Brain, Compound A 8 mg/kg PO, 2 hr): 208 ng/g; concentration at 0.5 h (CF-1, mouse, po, 8 mg/kg, Concentration Plasma, Compound A 8 mg/kg PO single dose, tissue collection 0.5 hr): 710 nM; concentration at 2 h (CF-1, mouse, po, 8 mg/kg, Concentration Plasma, Compound A 8 mg/kg PO single dose, tissue collection 2 hr): 430 nM; concentration at 0.5 h (CF-1, mouse, po, 8 mg/kg, Concentration Plasma, Compound A 8 mg/kg PO, 0.5 hr): 261 ng/mL; concentration at 2 h (CF-1, mouse, po, 8 mg/kg, Concentration Plasma, Compound A 8 mg/kg PO, 2 hr): 158 ng/mL; Brain concentration, Mean [1]: 40 nM; Plasma concentration, Mean [1]: 0.01 μM and 4.3 ng/mL; Brain concentration, Mean [2]: 120 nM; Plasma concentration, Mean [2]: 0.03 μM and 11.7 ng/mL; Brain concentration, Mean [3]: 60 nM; Plasma concentration, Mean [3]: 0.03 μM and 11.1 ng/mL; Brain concentration, Mean [4]: 90 nM; Plasma concentration, Mean [4]: 0.05 μM and 17.0 ng/mL; Brain concentration, Mean [5]: 160 nM; Plasma concentration, Mean [5]: 0.066 μM and 24 ng/mL; Concentration Plasma (Compound A 1 mg/kg PO single dose, tissue collection 2 hr, 1 mg/kg): 100 nM; Brain concentration, Mean [6]: 390 nM; Plasma concentration, Mean [6]: 45.1 ng/mL and 0.12 μM; Brain concentration, Mean [7]: 50 nM; Plasma concentration, Mean [7]: 0.02 μM and 5.6 ng/mL; Brain concentration, Mean [8]: 150 nM; Plasma concentration, Mean [8]: 0.04 μM and 16.0 ng/mL; Brain concentration, Mean [9]: 100 nM; Plasma concentration, Mean [9]: 0.05 μM and 19.0 ng/mL; Brain concentration, Mean [10]: 97 nM; Plasma concentration, Mean [10]: 0.042 μM and 15 ng/mL; Brain concentration, Mean [11]: 510 nM; Plasma concentration, Mean [11]: 58.4 ng/mL and 0.16 μM; concentration at 2 h (mouse, 1 mg/kg, plasma concentration, Compound A 1 mg/kg, mean±SEM, n=15): 66 ± 14 nM; concentration at 2 h (mouse, Brain concentration, Mean, analyte Compound A, 0.25 mg/kg + 2 mg/kg Phenytoin): 50 nM and 18.4 ng/g; concentration at 2 h (mouse, Brain concentration, Mean, analyte Compound A, 0.75 mg/kg + 2 mg/kg Phenytoin): 150 nM and 56.7 ng/g; concentration at 2 h (mouse, Brain concentration, Mean, analyte Compound A, 1 mg/kg + 2 mg/kg Phenytoin): 100 nM and 37 ng/g; concentration at 2 h (mouse, Brain concentration, Mean, analyte Compound A, 1 mg/kg PO + 100 mg/kg Valproic Acid IP): 97 nM and 36 ng/g; concentration at 2 h (mouse, Brain concentration, Mean, analyte Compound A, 2.5 mg/kg + 2 mg/kg Phenytoin): 510 nM and 186 ng/g; concentration at 2 h (mouse, Plasma concentration, Mean, analyte Compound A, 0.25 mg/kg + 2 mg/kg Phenytoin): 20 nM and 5.6 ng/mL; concentration at 2 h (mouse, Plasma concentration, Mean, analyte Compound A, 0.75 mg/kg + 2 mg/kg Phenytoin): 40 nM and 16 ng/mL; concentration at 2 h (mouse, Plasma concentration, Mean, analyte Compound A, 1 mg/kg + 2 mg/kg Phenytoin): 50 nM and 19 ng/mL; concentration at 2 h (mouse, Plasma concentration, Mean, analyte Compound A, 1 mg/kg PO + 100 mg/kg Valproic Acid IP): 42 nM and 15 ng/mL; concentration at 2 h (mouse, Plasma concentration, Mean, analyte Compound A, 2.5 mg/kg + 2 mg/kg Phenytoin): 160 nM and 58.4 ng/mL; concentration at 2 h (mouse, mean total brain concentration, analyte Compound A, 1 mg/kg PO + Valproic Acid 30 mg/kg IP): 75 nM and 28 ng/g; concentration at 2 h (mouse, mean total brain concentration, analyte Compound A, 1 mg/kg PO + Valproic Acid 56 mg/kg IP): 117 nM and 43 ng/g; concentration at 2 h (mouse, mean total plasma concentration, analyte Compound A, 1 mg/kg PO + Valproic Acid 30 mg/kg IP): 38 nM and 14 ng/mL; concentration at 2 h (mouse, mean total plasma concentration, analyte Compound A, 1 mg/kg PO + Valproic Acid 56 mg/kg IP): 18 ng/mL and 50 nM; concentration at 2 h (mouse, po, 0.25 mg/kg, Brain concentration, Mean, Compound A 0.25 mg/kg PO 2 h alone (phenytoin study)): 40 nM and 14.8 ng/g; concentration at 2 h (mouse, po, 0.25 mg/kg, Plasma concentration, Mean, Compound A 0.25 mg/kg PO 2 h alone (phenytoin study)): 10 nM and 4.3 ng/mL; concentration at 2 h (mouse, po, 0.75 mg/kg, Brain concentration, Mean, Compound A 0.75 mg/kg PO 2 h alone (phenytoin study)): 120 nM and 43.8 ng/g; concentration at 2 h (mouse, po, 0.75 mg/kg, Plasma concentration, Mean, Compound A 0.75 mg/kg PO 2 h alone (phenytoin study)): 11.7 ng/mL and 30 nM; concentration at 2 h (mouse, po, 1 mg/kg, Brain concentration, Mean, Compound A 1 mg/kg PO 2 h alone (levetiracetam study)): 60 nM and 20.9 ng/g; concentration at 2 h (mouse, po, 1 mg/kg, Brain concentration, Mean, Compound A 1 mg/kg PO 2 h alone (phenytoin study)): 100 nM and 35 ng/g; concentration at 2 h (mouse, po, 1 mg/kg, Brain concentration, Mean, Compound A 1 mg/kg PO 2 h alone (valproic acid study)): 160 nM and 59 ng/g; concentration at 2 h (mouse, po, 1 mg/kg, Plasma concentration, Mean, Compound A 1 mg/kg PO 2 h alone (levetiracetam study)): 30 nM and 11.1 ng/mL; concentration at 2 h (mouse, po, 1 mg/kg, Plasma concentration, Mean, Compound A 1 mg/kg PO 2 h alone (phenytoin study)): 50 nM and 17 ng/mL; concentration at 2 h (mouse, po, 1 mg/kg, Plasma concentration, Mean, Compound A 1 mg/kg PO 2 h alone (valproic acid study)): 66 nM and 24 ng/mL; concentration at 2 h (mouse, po, 2.5 mg/kg, Brain concentration, Mean, Compound A 2.5 mg/kg PO 2 h alone (phenytoin study)): 390 nM and 144 ng/g; concentration at 2 h (mouse, po, 2.5 mg/kg, Plasma concentration, Mean, Compound A 2.5 mg/kg PO 2 h alone (phenytoin study)): 120 nM and 45.1 ng/mL

From US20220288057A1, “CONJOINT THERAPY FOR TREATING SEIZURE DISORDERS” (XENON PHARMACEUTICALS INC., priority 2021, published 2022)
